According to US12458581B2, “Carboxylic acid loaded salt carrier and the method for producing thereof” (priority 2021, dated 2025):
Where two headings read alike, the source gives them in different places.

Columns and labels:
[1] = pH measurement of 0.1 M aqueous solutions; type: physicochemical; conditions: r.t.; for pH values compound: 0.1 M in millipore water, average of at least three measurements; for pH value / pH value of the reference material (non-loaded carrier salt): 0.1 M; for pH value: compound made via in-situ process
Excerpt: For the pH measurements, a Seven2Go portable pH meter S2 (pH measuring-range: −2 to 20; resolution: 0.01) with an InLab Ultra Micro-ISM electrode (measuring range: pH −1 to pH 11; low temperature membrane glass type; ceramic diaphragm; reference system with Ag^+ ion trap by argenthal) as well as with an in-lab routine pH electrode (measuring range: pH 0 to pH 14; ceramic diaphragm; reference system with Ag^+ ion trap by argenthal) from Mettler-Toledo AG (Analytical, Switzerland) was used.
For sake of comparability, compounds of the same loading ratio n=2, which is 2:1 of the loaded carboxylic acid with respect to the carrier carboxylic acid, were selected for this analysis. […] The analytes were dissolved in millipore water, stirred for 5 minutes in an airtight vial to perform the pH measurements thereafter at r.t. All measurements were performed at 0.1 molar (M) concentration of the samples, which is 0.1 mol per liter (mol/L).
For sake of reliability, every result stated is the average of at least three single measurements. […] The numbers 1-73 (nr., first row) are used as an assignment for the 73 pairs, comprising the compound of invention (third row), the corresponding carrier carboxylic acid (fourth row) and the loaded carboxylic acid (fifth row), as used in the FIG. 6.

[2] = mean particle diameter
[3] = Thermal analysis (TGA/DTA); type: physicochemical
Method: Thermal analysis was carried out with a Linseis STA 1600 simultaneous thermal analyzer to determine simultaneous changes of weight (TGA signal) and caloric measurable transformations (DTA signal) in a temperature range between r.t. and 300° C.

SMILES | pH values compound [1] | also measured
CC(=O)O.CC(=O)O.NC(CCC(=O)[O-])C(=O)[O-].[Ca+2] (centres unmarked) [CaGlu-HAc [2]] | 4.52 | –
O=CO.O=CO.O=C[O-].O=C[O-].[Mg+2] [MgFo-HFo [2]] | 6.54 | –
CC(=O)O.CC(=O)O.O=C([O-])c1ccccc1.O=C([O-])c1ccccc1.[Ca+2] [CaBen-HAc [2]] | 4.46 | –
CC(O)C(=O)O.CC(O)C(=O)O.CC(O)C(=O)[O-].CC(O)C(=O)[O-].[Mg+2] (centres unmarked) [MgLac-HLac [2]] | 3.31 | –
CC(=O)O.CCC(=O)O.O=C([O-])C(O)C(O)C(=O)[O-].[Ca+2] (centres unmarked) [CaT-HAc-HProp [1,1], calcium tartrate with loaded acetic acid and propionic acid] | 3.63 | dav [2]: 220 μm; dav ([2]; listed as CaT-HAc—HProp [1,1]): approximately 220 μm; pH value [1]: 3.63
CC(=O)O.CC(O)C(=O)[O-].CC(O)C(=O)[O-].CCC(=O)O.[Mg+2] (centres unmarked) [MgLac-HAc-HProp [1,1]] | 4.48 | –
CCC(=O)O.CCC(=O)O.O=C([O-])/C=C/C(=O)[O-].[Ca+2] [CaFum-HProp [2]] | 4.27 | –
O=C([O-])/C=C/C(=O)[O-].O=CO.O=CO.[Mg+2] [MgFum-HFo [2]] | 3.76 | –
CC(O)C(=O)O.CC(O)C(=O)O.CC(O)C(=O)O.CC(O)C(=O)O.NC(CCC(=O)[O-])C(=O)[O-].[Ca+2] (centres unmarked) [CaGlu-HLac [4]] | 3.60 | –
CCC(=O)O.CCC(=O)O.O=C([O-])c1ccccc1.O=C([O-])c1ccccc1.[Ca+2] [CaBen-HProp [2]] | 4.64 | –
CC(=O)O.CC(=O)O.NC(CC(=O)[O-])C(=O)[O-].[Ca+2] (centres unmarked) [CaAsp-HAc [2]] | 4.42 | –
CCC(=O)O.CCC(=O)O.O=C([O-])CCC(=O)[O-].[Ca+2] [CaSuc-HProp [2]] | 5.01 | –
CC(O)C(=O)O.CC(O)C(=O)O.O=C([O-])C(O)C(O)C(=O)[O-].[Ca+2] (centres unmarked) [CaT-HLac [2], calcium tartrate with loaded lactic acid] | 3.27 | pH value [1]: 3.27
CCC(=O)O.CCC(=O)O.O=C[O-].O=C[O-].[Mg+2] [MgFo-HProp [2], magnesium formate with loaded propionic acid] | 4.84 | thermal stability of the carrier carboxylic acid salt [3]: up to 300 °C; water release on heating (TGA) ([3]; constant heating, 1° C. to 300° C., FIG. 4(A)): no water is released; total loss of weight (TGA) ([3]; dry sample, heating in the range of 125° C. to 200° C., 2 K/min, nitrogen): 24.4%
CC(O)C(=O)O.CC(O)C(=O)O.CC(O)C(=O)O.CC(O)C(=O)[O-].CC(O)C(=O)[O-].[Ca+2] (centres unmarked) [CaLac-HLac [3]] | 3.38 | –
CC(=O)O.CC(=O)O.CC(=O)O.CC(=O)O.O=C([O-])C(O)C(O)C(=O)[O-].[Ca+2] (centres unmarked) [CaT-HAc [4], calcium tartrate with loaded acetic acid] | 3.33 | pH value [1]: 3.33
CC(=O)O.CC(=O)O.O=C[O-].O=C[O-].[Mg+2] [MgFo-HAc [2], magnesium formate with loaded acetic acid] | 5.10 | pH value [1]: 5.10
O=C([O-])C(O)C(O)C(=O)[O-].[Ca+2] (centres unmarked) [calcium tartrate, reference compound] | – | pH value of the reference material (non-loaded carrier salt) [1]: 7.33
CC(O)C(=O)O.CC(O)C(=O)O.CC(O)C(=O)O.CC(O)C(=O)O.CC(O)C(=O)[O-].CC(O)C(=O)[O-].[Ca+2] (centres unmarked) [CaLac-HLac [4]] | 3.30 | –
CC(=O)O.CC(O)C(=O)O.CCC(=O)O.O=C([O-])CC(O)C(=O)[O-].[Ca+2] (centres unmarked) [CaMa-HAc-HProp-HLac [1,1,1]] | 4.97 | –
CC(=O)O.CC(=O)O.CC(=O)O.CC(=O)[O-].CC(=O)[O-].[Ca+2] [CaAc-HAc [3]] | 4.62 | –
CC(=O)O.CC(=O)O.O=C1OC(C(O)CO)C([O-])=C1O.O=C1OC(C(O)CO)C([O-])=C1O.[Ca+2] (centres unmarked) [CaAsc-HAc [2], calcium ascorbate with loaded acetic acid] | 4.42 | –
CC(=O)O.CC(=O)O.CC(=O)O.CC(=O)O.CC(=O)O.CC(=O)O.O=C1OC(C(O)CO)C([O-])=C1O.O=C1OC(C(O)CO)C([O-])=C1O.[Ca+2] (centres unmarked) [CaAsc-HAc [6]] | 4.12 | –
CC(O)C(=O)O.CC(O)C(=O)O.CC(O)C(=O)[O-].CC(O)C(=O)[O-].[Ca+2] (centres unmarked) [CaLac-HLac [2]] | 3.45 | –
NC(CC(=O)[O-])C(=O)[O-].O=C(O)CO.O=C(O)CO.[Ca+2] (centres unmarked) [CaAsp-HGly [2]] | 3.88 | –
CC(=O)O.CC(=O)O.CC(O)C(=O)[O-].CC(O)C(=O)[O-].[Mg+2] (centres unmarked) [MgLac-HAc [2]] | 4.43 | –
CC(=O)O.CC(=O)O.O=C([O-])CCC(=O)[O-].[Ca+2] [CaSuc-HAc [2]] | 4.69 | –

SMILES | pH values compound [1] | also measured
CC(=O)O.CC(=O)O.O=C([O-])/C=C/C(=O)[O-].[Ca+2] [CaFum-HAc [2]] | 4.17 | –
CC(=O)O.CC(=O)O.O=C([O-])CCC(=O)[O-].[Mg+2] [MgSuc-HAc [2]] | 4.69 | –
CCC(=O)O.CCC(=O)O.O=C([O-])CO.O=C([O-])CO.[Ca+2] [CaGly-HProp [2]] | 4.63 | –
CC(=O)O.CC(=O)O.O=C([O-])/C=C/C(=O)[O-].[Mg+2] [MgFum-HAc [2]] | 4.13 | –
CC(O)C(=O)[O-].CC(O)C(=O)[O-].CCC(=O)O.CCC(=O)O.[Mg+2] (centres unmarked) [MgLac-HProp [2]] | 4.45 | –
CCC(=O)O.CCC(=O)O.O=C([O-])/C=C/C(=O)[O-].[Mg+2] [MgFum-HProp [2]] | 4.24 | –
CCC(=O)O.CCC(=O)O.O=C([O-])C(O)C(O)C(=O)[O-].[Ca+2] (centres unmarked) [CaT-HProp [2], calcium tartrate with loaded propionic acid] | 3.71 | –
O=C[O-].O=C[O-].[Mg+2] [magnesium formate, reference compound] | – | pH value of the reference material (non-loaded carrier salt) [1]: 7.90
CC(=O)O.CC(=O)O.O=C[O-].O=C[O-].[Ca+2] [CaFo-HAc [2]] | 4.74 | –
CC(O)C(=O)O.CC(O)C(=O)O.O=C([O-])/C=C/C(=O)[O-].[Ca+2] [CaFum-HLac [2]] | 3.68 | –
CC(O)C(=O)O.CC(O)C(=O)O.O=C[O-].O=C[O-].[Mg+2] (centres unmarked) [MgFo-HLac [2]] | 3.72 | –
CCC(=O)O.CCC(=O)O.O=C1OC(C(O)CO)C([O-])=C1O.O=C1OC(C(O)CO)C([O-])=C1O.[Ca+2] (centres unmarked) [CaAsc-HProp [2], calcium ascorbate with loaded propionic acid] | 4.88 | –
CC(O)C(=O)O.CC(O)C(=O)O.O=C([O-])/C=C/C(=O)[O-].[Mg+2] [MgFum-HLac [2]] | 3.69 | –
CC(=O)O.CC(=O)O.O=C([O-])CC(O)C(=O)[O-].[Ca+2] (centres unmarked) [CaMa-HAc [2]] | 4.53 | –
CCC(=O)O.CCC(=O)O.O=C([O-])CC(O)C(=O)[O-].[Ca+2] (centres unmarked) [CaM-HProp [2]] | 4.45 | –
CC(=O)O.CC(=O)O.CC(=O)[O-].CC(=O)[O-].[Mg+2] [MgAc-HAc [2]] | 5.06 | –
CC(=O)O.CC(=O)O.CC(=O)O.CC(=O)O.CC(=O)O.O=C([O-])C(O)C(O)C(=O)[O-].[Ca+2] (centres unmarked) [CaT-HAc [5]] | 3.84 | –
CC(=O)O.CC(=O)O.CC(=O)O.CC(=O)O.O=C1OC(C(O)CO)C([O-])=C1O.O=C1OC(C(O)CO)C([O-])=C1O.[Ca+2] (centres unmarked) [CaAsc-HAc [4]] | 4.22 | –
CC(=O)[O-].CC(=O)[O-].CCC(=O)O.CCC(=O)O.[Mg+2] [MgAc-HProp [2]] | 5.51 | –
CC(=O)O.CC(O)C(=O)O.CCC(=O)O.O=C([O-])C(O)C(O)C(=O)[O-].[Ca+2] (centres unmarked) [CaT-HAc-HPro-HLac [1,1,1]] | 3.33 | –
O=C([O-])/C=C/C(=O)[O-].O=CO.O=CO.[Ca+2] [CaFum-HFo [2]] | 3.58 | –
CC(=O)O.CC(=O)O.CC(O)C(=O)[O-].CC(O)C(=O)[O-].[Ca+2] (centres unmarked) [CaLac-HAc [2]] | 4.58 | –
CC(=O)O.CC(=O)O.O=C1OC(C(O)CO)C([O-])=C1O.O=C1OC(C(O)CO)C([O-])=C1O.[Mg+2] (centres unmarked) [MgAsc-HAc [2]] | 4.34 | –
CC(=O)O.CC(=O)O.CC(=O)O.O=C1OC(C(O)CO)C([O-])=C1O.O=C1OC(C(O)CO)C([O-])=C1O.[Ca+2] (centres unmarked) [CaAsc-HAc [3], calcium ascorbate with loaded acetic acid] | 4.22 | –
CC(=O)[O-].CC(=O)[O-].CCC(=O)O.CCC(=O)O.[Ca+2] [CaAc-HProp [2]] | 5.16 | –
CCC(=O)O.CCC(=O)O.O=C([O-])CCC(=O)[O-].[Mg+2] [MgSuc-HProp [2]] | 5.18 | –
